The values that follow are results of earlier work, collected in article PMC7751758, “Repurposing Sigma-1 Receptor Ligands for COVID-19 Therapy?” (Frontiers in Pharmacology, 2020).

“And” between values parts separate entries of the source, which are not always exact repeats. Identical values can stand only once. “Also recorded” adds a separate entry of the source. Like-named read-outs stand apart in the source and are kept apart here.

The target in one data set is Sigma-1 receptor. The following applies: for IC50: read-out: Sigma-1 receptor affinity IC50; for Ki: read-out: Sigma-1 receptor affinity Ki.
Data set [1] deals with HCV-induced cytopathic effect on the engineered cell line n4mBid. Conditions: leads of the cell protection screen; ref Chockalingam et al., 2010.
The test system of data set [2] is H5N1 virus in A549 lung epithelial cells.
The next data set relates to H5N1 virus. Conditions: mouse, in vivo.
A further data set relates to CHIKV. Conditions: cytopathic effect induced by Chikungunya virus and other alphaviruses (Semliki Forest virus and Sindbis virus). For orientation: Protection from cytopathic effect is a common read-out in antiviral testing.
The subject of another data set is HCV infection. The following applies: without significantly reducing cell biomass; ref Mingorance et al., 2014.
The test system of data set [3] is HCV infection of human hepatocarcinoma Huh-7 cells. The following applies: absence of cytotoxicity at low micromolar and submicromolar concentrations; ref Gastaminza et al., 2010.
The conditions of data set [4]: associated with bioaccumulation of the drugs; ref Palmeira et al., 2020.
Another data set concerns HCoV-229E. The following applies: replication in cell culture.
Another data set deals with EBV. Conditions: infection of B lymphocytes.
For data set [5], the system named is EBOV.
Data set [6] relates to EBOV. Conditions: mouse, in vivo.
Data set [7] concerns EBOV. Conditions: guinea pig, in vivo.
Data set [8] has as its system SARS-CoV-2 in Huh-7 cells. The following applies: devoid of cytotoxicity, ref Mirabelli et al., 2020.

As a reminder, the IC50 is the midpoint of a concentration-inhibition curve. The Ki is the equilibrium dissociation constant of an inhibitor or competing ligand from its target. As to `CN(C)CCC=C1c2ccccc2CCc2ccccc21` [Amitriptyline], at Sigma-1 receptor, the IC50 is 216 nM and 300 nM; the inhibition constant (Ki) is 287 nM. Moreover, the “alleviation of HCV-induced cytopathic effect (n4mBid cell viability relative to untreated cells)” value in data set [1] is recorded as “increase n4mBid cell viability; also recorded: inhibit the HCV-induced cytopathic effect”. For the same compound, the “viability of A549 cells infected with H5N1” value in data set [2] was “increased viability”. Moreover, in the data set with H5N1 virus, the infiltrating cell count result is “reduced”; the “lung edema and survival” value is recorded as “improved”; the lung injury result is listed as “decreased”.

Regarding `OCCN1CCN(CCCN2c3ccccc3Sc3ccc(Cl)cc32)CC1` [Perphenazine], in the data set with CHIKV (ref Pohjala et al., 2011, listed as perphenazine), the “Antiviral activity: Virus” value is reported as “inhibition of the cytopathic effect”. The “reduction of HCV infection” value with HCV infection is “more than one order of magnitude”. The “alleviation of HCV-induced cytopathic effect (n4mBid cell viability relative to untreated cells)” value in data set [1] is listed as “increase n4mBid cell viability”.

With `CN(C)CCC=C1c2ccccc2COc2ccccc21` [Doxepin], the “Antiviral activity: Virus” value with CHIKV (ref Pohjala et al., 2011, listed as doxepin) is recorded as “inhibition of the cytopathic effect”. The “reduction in HCV infection of Huh-7 cells, as compared to the vehicle DMSO control” value (“reduction in HCV infection” for short) in data set [3] is > 85%.

With `CC(C(O)c1ccc(O)cc1)N1CCC(Cc2ccccc2)CC1` (stereo not drawn) [Ifenprodil], at Sigma-1 receptor, the half-maximal inhibitory concentration (IC50) was 5.5 nM. Further, in data set [1], the “alleviation of HCV-induced cytopathic effect (n4mBid cell viability relative to untreated cells)” value is “increase n4mBid cell viability; also recorded: inhibit the HCV-induced cytopathic effect”. For the same compound, the “cell viability in vitro” value in data set [2] is on record as “increased cell viability”. Also, in the data set with H5N1 virus, the “leukocyte infiltration and lung injury” value is on record as “markedly decreased”; the survival result is on record as “improved survival”.

For the compound `CCN(CCO)CCCC(C)Nc1ccnc2cc(Cl)ccc12` (stereo not drawn) [Hydroxychloroquine], at Sigma-1 receptor, the IC50 was 2120 nM. Moreover, the “Antiviral activity: Virus” value in the data set on SARS-CoV and in the data set on MERS-CoV was “in vitro activity” each time. Moreover, the “efficacy in COVID-19 patients” value in the data set on COVID-19 (first clinical studies, ref Geleris et al., 2020, Mitjà et al., Roustit et al.) is on record as “do not support efficacy”. Moreover, in the data set with COVID-19 (human, in vivo), the “adverse drug reactions in patients with COVID-19” value is reported as “serious adverse drug reactions”. Further, the “decreasing the likelihood of death or speeding recovery” value in the data set on COVID-19 (large, randomized clinical trial in hospitalized patients, ref FDA communication, 2020) is listed as “no benefit”. Moreover, the side effects entry in [4] is “serious retinopathies and cardiopathies”.

Take `O=C(c1ccc(OCCN2CCCCC2)cc1)c1c(-c2ccc(O)cc2)sc2cc(O)ccc12` [Raloxifene]: on Sigma-1 receptor, the half-inhibitory concentration (IC50) was 122 nM and the inhibitory constant (Ki) is 38 nM. Besides, in the data set on HCV infection, the “reduction of HCV infection” value is recorded as “more than one order of magnitude”. In data set [1], the “alleviation of HCV-induced cytopathic effect (n4mBid cell viability relative to untreated cells)” value is “increase n4mBid cell viability”.

With `CCSc1ccc2c(c1)N(CCCN1CCN(C)CC1)c1ccccc1S2` [Thiethylperazine], the IC50 on Sigma-1 receptor is 528 nM. Moreover, the “Antiviral activity: Virus” value with SARS-CoV is “in vitro activity; also recorded: SARS-CoV SARS-CoV-2”; in the data set with MERS-CoV it was “in vitro activity”; in the data set with CHIKV (ref Pohjala et al., 2011, listed as thiethylperazine), “inhibition of the cytopathic effect”.

As to `Cc1cccc(C)c1OCC(=O)N[C@@H](Cc1ccccc1)[C@@H](O)C[C@H](Cc1ccccc1)NC(=O)[C@H](C(C)C)N1CCCNC1=O` [lopinavir], the “Antiviral activity: Virus” value in the data set with SARS-CoV is “inhibited the replication”; in the data set with HCoV-229E (ref de Wilde et al., 2014) it was “inhibited the replication”.

`CN1CCN(CCCN2c3ccccc3Sc3ccc(C(F)(F)F)cc32)CC1` [Trifluoperazine]: the “Antiviral activity: Virus” value in the data set on EBV (ref Nemerow and Cooper, 1984, listed as trifluoperazine) was “inhibit infection of B lymphocytes”. The “reduction in HCV infection” value in [3] is listed as > 85%. Further, the “alleviation of HCV-induced cytopathic effect (n4mBid cell viability relative to untreated cells)” value in [1] is “increase n4mBid cell viability”.

Consider `CN1CCN(CCCN2c3ccccc3Sc3ccc(Cl)cc32)CC1` [Prochlorperazine], for which the “Antiviral activity: Virus” value in the data set with EBOV [5] was “active”. In addition, the “Antiviral activity: Virus” value in the data set with EBV (ref Nemerow and Cooper, 1984) was “inhibit infection of B lymphocytes”. In addition, the “reduction in HCV infection” value in [3] was > 85%. Moreover, in the data set with Ebola virus (EBOV), the cellular toxicity is < 30% and the viral inhibition is reported as > 50%.

With `CCN(CC)CCOc1ccc(C(=C(Cl)c2ccccc2)c2ccccc2)cc1` [Clomiphene], the “Antiviral activity: Virus” value in the data set with EBOV [5] is recorded as “active”. Also, the “reduction of HCV infection” value in the data set with HCV infection is reported as “more than one order of magnitude”. In the data set on Ebola virus (EBOV), the cellular toxicity is < 30% and the viral inhibition is recorded as > 50%.

With `CC[C@H]1OC(=O)[C@H](C)[C@@H](O[C@H]2C[C@@](C)(OC)[C@@H](O)[C@H](C)O2)[C@H](C)[C@@H](O[C@@H]2O[C@H](C)C[C@H](N(C)C)[C@H]2O)[C@](C)(O)C[C@@H](C)CN(C)[C@H](C)[C@@H](O)[C@]1(C)O` [azithromycin], the “survival of infected mice” value in the data set on EBOV [6] was “increased survival”. Moreover, the survival entry with EBOV [7] is on record as “none of the tested doses increased survival”.

Take `CN(C)CCCN1c2ccccc2Sc2ccc(Cl)cc21` [Chlorpromazine]: on Sigma-1 receptor, the inhibition constant (Ki) was 146 nM. Further, the “Antiviral activity: Virus” value in the data set with SARS-CoV is “inhibited the replication; also recorded: in vitro activity; also recorded: SARS-CoVSARS-CoV-2”; with MERS-CoV, “in vitro activity”; in the data set with CHIKV (ref Pohjala et al., 2011, listed as chlorpromazine), “inhibition of the cytopathic effect”; in the data set on HCoV-229E (ref de Wilde et al., 2014, listed as chlorpromazine) it was “inhibited the replication”; in the data set on EBV (ref Nemerow and Cooper, 1984, listed as chlorpromazine), “inhibit infection of B lymphocytes”. The “reduction of HCV infection” value in the data set with HCV infection is recorded as “more than one order of magnitude”.

As for `CN(C)C(=O)C(CCN1CCC(O)(c2ccc(Cl)cc2)CC1)(c1ccccc1)c1ccccc1` [Loperamide], the “Antiviral activity: Virus” value in the data set on SARS-CoV is given as “inhibited the replication”; in the data set on HCoV-229E (ref de Wilde et al., 2014, listed as loperamide), “inhibited the replication”.

Consider `CN(C)CCCN1c2ccccc2CCc2ccc(Cl)cc21` [Clomipramine], for which the figures for the “Antiviral activity: Virus” value in the data set on EBOV [5], in the data set with SARS-CoV and in the data set with MERS-CoV were “active”, “in vitro activity; also recorded: SARS-CoV SARS-CoV-2” and “in vitro activity”, respectively. Besides, the “reduction of HCV infection” value in the data set on HCV infection is “more than one order of magnitude”.

On to `CN1CCC(CN2c3ccccc3Sc3ccccc32)C1` (stereo not drawn) [Methdilazine], for which the IC50 on Sigma-1 receptor was 167 nM. Besides, the “Antiviral activity: Virus” value in the data set with CHIKV (ref Pohjala et al., 2011, listed as methdilazine) was “inhibition of the cytopathic effect”.

For the compound `CN1[C@@H]2CC[C@H]1C[C@@H](OC(c1ccccc1)c1ccccc1)C2` [Benztropine], the “Antiviral activity: Virus” value in the data set with EBOV [5] is on record as “active”; in the data set on SARS-CoV, “in vitro activity; also recorded: SARS-CoV SARS-CoV-2”; with MERS-CoV it was “in vitro activity”. The “reduction of HCV infection” value in the data set on HCV infection is listed as “more than one order of magnitude”. Besides, the cellular toxicity in the data set with Ebola virus (EBOV) is on record as < 30%. Besides, the viral inhibition in the data set with Ebola virus (EBOV) was > 50%.

As to `CC(C)COCC(CN(Cc1ccccc1)c1ccccc1)N1CCCC1` (stereo not drawn) [Bepridil], the concentration for half-maximal inhibition (IC50) on Sigma-1 receptor was 365 nM. The “Antiviral activity: Virus” value with EBOV [5] was “active”. The “protection in a murine EBOV infection model” value in the data set with EBOV [6] was “protective ability”.

As to `CC(CN1c2ccccc2Sc2ccccc21)N(C)C` (stereo not drawn) [Promethazine], at Sigma-1 receptor, the concentration for half-maximal inhibition (IC50) is 857 nM. In addition, the “Antiviral activity: Virus” value was “in vitro activity; also recorded: SARS-CoV SARS-CoV-2” in the data set on SARS-CoV; “in vitro activity” in the data set with MERS-CoV; “inhibit infection of B lymphocytes” in the data set on EBV (ref Nemerow and Cooper, 1984, listed as promethazine).

For `CN[C@H]1CC[C@@H](c2ccc(Cl)c(Cl)c2)c2ccccc21` [Sertraline], the “Antiviral activity: Virus” value with EBOV [5] is “active”. In the data set with EBOV [6], the “protection in a murine EBOV infection model” value is listed as “protective ability”.

In the case of `O=C(CCCN1CCC(O)(c2ccc(Cl)cc2)CC1)c1ccc(F)cc1` [Haloperidol], in the data set with EBV (ref Nemerow and Cooper, 1984, listed as haloperidol), the “Antiviral activity: Virus” value is “inhibit infection of B lymphocytes”. Moreover, the “reduction in HCV infection” value in data set [3] is recorded as > 85%.

With `COc1ccc(CCN(C)CCCC(C#N)(c2ccc(OC)c(OC)c2)C(C)C)cc1OC` (stereo not drawn) [Verapamil], at Sigma-1 receptor, the half-maximal inhibitory concentration (IC50) is […]. In [8], the antiviral potency result is recorded as “below 1 µM”.

Take `CSc1ccc2c(c1)N(CCC1CCCCN1C)c1ccccc1S2` (stereo not drawn) [Thioridazine]: the “Antiviral activity: Virus” value in the data set on EBOV [5] is “active”; in the data set on CHIKV (ref Pohjala et al., 2011, listed as thioridazine), “inhibition of the cytopathic effect”.
